We go through 18 compounds from patent publication US20050004134A1, “Thiazole derivative and pharmaceutical use thereof” (priority 2001, published 2005).

One series concerns the target human A2a receptor (Homo sapiens, UniProt P29274). Description: Adenosine antagonistic activity, radioligand binding with [3H]CGS 21680. The conditions noted are these: [3H]CGS 21680, 20 nM. As for the experimental part:
(§1) Test 1: Adenosine Antagonistic Activity
(§2) The adenosine antagonistic activity [Ki(nM)] of the test compound was examined by radioligand binding techniques using 8-cyclopentyl-1,3-dipropylxanthine, [dipropyl-2,3^−3H(N)] ([3H]DPCPX, 4.5 nM) for human A1 receptor and [3H]CGS 21680 (20 nM) for human A2a receptor.

In another series the target is T1, human A1 receptor (Homo sapiens, UniProt P30542).
T1 sequence (P30542 1-326): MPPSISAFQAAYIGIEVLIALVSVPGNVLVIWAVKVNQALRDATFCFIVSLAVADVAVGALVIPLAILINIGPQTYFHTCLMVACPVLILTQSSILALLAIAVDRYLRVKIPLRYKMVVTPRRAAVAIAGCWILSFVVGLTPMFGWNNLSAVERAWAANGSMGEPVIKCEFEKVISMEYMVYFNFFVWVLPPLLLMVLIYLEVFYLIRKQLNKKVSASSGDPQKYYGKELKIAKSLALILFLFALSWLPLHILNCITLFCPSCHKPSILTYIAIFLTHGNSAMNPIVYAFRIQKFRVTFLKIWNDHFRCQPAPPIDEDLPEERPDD
Description: Adenosine antagonistic activity, radioligand binding with [3H]DPCPX. The settings on record: 4.5 nM. The method, then: as §1, §2

In a further series the test system is ddY mice. Description: Anticatalepsy activity in mouse (haloperidol-induced catalepsy). The settings on record: 3.2 mg/kg orally, ddY mice (n=7); haloperidol 0.32 mg/kg i.p. 30 min after compound; measured 30 min after injection, bar test up to 30 sec. Type of series: in vivo. The method, then:
Test 2: Anticatalepsy Activity in Mouse
The test compound (3.2 mg/kg) was administered orally with ddY mice(n=7). Then, haloperidol (0.32 mg/kg) was injected intraperitoneally 30 min. after the administration of the compound. Thirty minutes after the injection, the cataleptic responses of mice were measured. The forelimbs of each mouse were placed on a 3 cm high, 3 mm wide horizontal bar, and the duration of cataleptic posture was measured for up to 30 sec.

human A2a receptor, sequence (P29274 whole entry): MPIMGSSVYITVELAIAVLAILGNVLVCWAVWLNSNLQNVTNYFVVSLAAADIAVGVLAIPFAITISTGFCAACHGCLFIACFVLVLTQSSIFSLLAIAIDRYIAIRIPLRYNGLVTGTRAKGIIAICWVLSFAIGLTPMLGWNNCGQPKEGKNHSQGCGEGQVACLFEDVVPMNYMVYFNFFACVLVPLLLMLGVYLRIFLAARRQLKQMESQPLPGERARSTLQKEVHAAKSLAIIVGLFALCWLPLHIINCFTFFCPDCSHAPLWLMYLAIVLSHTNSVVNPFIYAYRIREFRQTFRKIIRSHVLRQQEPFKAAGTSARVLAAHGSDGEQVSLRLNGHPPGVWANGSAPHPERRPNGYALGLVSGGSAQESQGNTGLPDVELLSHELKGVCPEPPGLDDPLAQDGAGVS

The compound `CC(C)n1nc(-c2sc(NC(=O)c3ccccc3)nc2-c2ccc(F)cc2)ccc1=O` [Example 78, N-[4-(4-Fluorophenyl)-5-(1-isopropyl-6-oxo-1,6-dihydro-3-pyridazinyl)-1,3-thiazol-2-yl]-benzamide] gave a melting point of 228 to 230 °C. The compound further gave an inhibition constant Ki on human A2a receptor of 1.23 nM. At human A1 receptor, this compound registered an inhibitory constant (Ki) of 0.45 nM. Besides, in the series on ddY mice, the “Manifestation rate of catalepsy (number of mouse)” value (shortened to “Manifestation rate of catalepsy”) is reported as 0/7.
Taken in the same sequence, the figures for `CC(C)n1nc(-c2sc(NC(=O)CNCc3ccncc3)nc2-c2ccccc2)ccc1=O` [Example 100, N-[5-(1-isopropyl-6-oxo-1,6-dihydro-3-pyridazinyl)-4-phenyl-1,3-thiazol-2-yl]-2-[(4-pyridinylmethyl)amino]acetamide] were 187 to 188 °C, 1.22 nM, 0.61 nM and 0/7.
Consider `Cc1cccc(NC(=O)Nc2nc(-c3ccccc3)c(-c3ccc(=O)n(C(C)C)n3)s2)c1` [Example 10, N-[5-(1-Isopropyl-6-oxo-1,6-dihydro-3-pyridazinyl)-4-phenyl-1,3-thiazol-2-yl]-N′-(3-methylphenyl)urea], for which the melting point fell in the range of 242 to 243 °C. Besides, the inhibition constant (Ki) on human A2a receptor amounted to 3.08 nM. Moreover, at human A1 receptor, the Ki came to 0.38 nM.
`CC(C)n1nc(-c2sc(C(=O)NCc3ccncc3)nc2-c2ccccc2)ccc1=O` [Example 233, 5-(1-Isopropyl-6-oxo-1,6-dihydro-3-pyridazinyl)-4-phenyl-N-(4-pyridinylmethyl)-1,3-thiazole-2-carboxamide] came in with a melting point of 192 to 193 °C. In addition, the Ki at human A2a receptor is 1.14 nM. Moreover, the affinity on human A1 receptor, expressed as Ki, was 1.03 nM. Further, the “Manifestation rate of catalepsy” value in the series with ddY mice is 0/7.
Taken in the same sequence, the figures for `COc1ccc(CC(=O)Nc2nc(-c3ccccc3)c(-c3ccc(=O)n(C(C)C)n3)s2)cc1` [Example 9, N-[5-(1-Isopropyl-6-oxo-1,6-dihydro-3-pyridazinyl)-4-phenyl-1,3-thiazol-2-yl]-2-(4-methoxyphenyl)acetamide] were 188 to 190 °C, 1.22 nM, 0.28 nM and 0/7.
On to `CNc1nc(-c2ccccc2)c(-c2ccc(=O)n(C(C)C)n2)s1` [Example 15, 2-Isopropyl-6-[2-(methylamino)-4-phenyl-1,3-thiazol-5-yl]-3(2H)-pyridazinone], for which the melting point was 234 to 236 °C. This compound also displayed a Ki at human A2a receptor of 1.63 nM. The affinity at human A1 receptor, expressed as Ki, was 0.12 nM. Also, in the series on ddY mice, the “Manifestation rate of catalepsy” value was 0/7.
The compound `CCNC(=O)c1nc(-c2ccccc2)c(-c2ccc(=O)n(C(C)C)n2)s1` [Example 214, N-ethyl-5-(1-isopropyl-6-oxo-1,6-dihydro-3-pyridazinyl)-4-phenyl-1,3-thiazole-2-carboxamide] yielded a melting point of 172 to 174 °C. In addition, on human A2a receptor, affinity was put at a Ki of 1.52 nM. Also, at human A1 receptor, the Ki came to 1.14 nM. In the series with ddY mice, the “Manifestation rate of catalepsy” value is listed as 0/7.
The compound `CCCCCC(=O)Nc1nc(-c2ccccc2)c(-c2ccc(=O)n(C(C)C)n2)s1` [Example 3, N-[5-(1-Isopropyl-6-oxo-1,6-dihydro-3-pyridazinyl)-4-phenyl-1,3-thiazol-2-yl]hexanamide] had a melting point of 129 to 132 °C. The same compound returned an inhibition constant (Ki) at human A2a receptor of 1.46 nM. Also, the affinity on human A1 receptor corresponds to a Ki of 0.27 nM. In addition, the “Manifestation rate of catalepsy” value in the series with ddY mice is on record as 0/7.
For `CC(C)n1nc(-c2sc(C(=O)NCc3ccccn3)nc2-c2ccccc2F)ccc1=O` [Example 207, 4-(2-Fluorophenyl)-5-(1-isopropyl-6-oxo-1,6-dihydro-3-pyridazinyl)-N-(2-pyridinylmethyl)-1,3-thiazole-2-carboxamide], the melting point fell in the range of 190 to 191 °C.
`CC(C)n1nc(-c2sc(C(=O)N3CCN(c4ccccc4)CC3)nc2-c2ccccc2)ccc1=O` [Example 231, 2-isopropyl-6-(4-phenyl-2-[(4-phenyl-1-piperazinyl)carbonyl]-1,3-thiazol-5-yl}-3(2H)-pyridazinone] gave a melting point of 163.5 to 165 °C.
Same read-out and setting: next, `CC(C)NC(=O)c1nc(-c2ccc(F)cc2)c(-c2ccc(=O)n(C(C)C)n2)s1` [Example 186, 4-(4-fluorophenyl)-N-isopropyl-5-(1-isopropyl-6-oxo-1,6-dihydro-3-pyridazinyl)-1,3-thiazole-2-carboxamide]: 122 to 123.5 °C; `CC(O)CNCC(=O)Nc1nc(-c2ccccc2)c(-c2ccc(=O)n(C(C)C)n2)s1.Cl` (centres unmarked): 209 to 211 °C.
The same measure, in the same setting: next, `CC(=O)Nc1nc(-c2ccc(F)cc2)c(-c2ccc(=O)n(C(C)C)n2)s1` [Example 82, N-[4-(4-fluorophenyl)-5-(1-isopropyl-6-oxo-1,6-dihydro-3-pyridazinyl)-1,3-thiazol-2-yl]acetamide]: 236 to 237.5 °C; `CC(C)n1nc(-c2sc(C(=O)NCc3ccccn3)nc2-c2cccc(Cl)c2)ccc1=O` [Example 209, 4-(3-Chlorophenyl)-5-(1-isopropyl-6-oxo-1,6-dihydro-3-pyridazinyl)-N-(2-pyridinylmethyl)-1,3-thiazole-2-carboxamide]: 168 to 169.5 °C; `CC(C)n1nc(-c2sc(N)nc2-c2ccccc2F)ccc1=O` [Example 79, 6-[2-Amino-4-(2-fluorophenyl)-1,3-thiazol-5-yl]-2-isopropyl-3(2H)-pyridazinone]: 233 to 235 °C.
In the case of `O=C(NCc1ccccn1)c1nc(-c2ccccc2)c(-c2ccc(=O)n(Cc3ccccc3)n2)s1` [Example 205, 5-(1-Benzyl-6-oxo-1,6-dihydro-3-pyridazinyl)-4-phenyl-N-(2-pyridinylmethyl)-1,3-thiazole-2-carboxamide], the melting point was in the range of 172.5 to 173.5 °C.
Still for that read-out and setting: next, `CC(C)n1nc(-c2sc(C(=O)N3CCOCC3)nc2-c2ccccc2)ccc1=O` [Example 227, 2-Isopropyl-6-[2-(4-morpholinylcarbonyl)-4-phenyl-1,3-thiazol-5-yl]-3(2H)-pyridazinone]: 161.5 to 162.5 °C.
Same read-out and setting: then `CC(C)n1nc(-c2sc(NC(=O)CNCCCN3CCCC3=O)nc2-c2ccccc2)ccc1=O.Cl`, with 207 to 209 °C.
